Consider 24 compounds from patent publication US11999746B2, “Compounds” (GlaxoSmithKline Intellectual Property Development Limited, priority 2014, dated 2024).

The target of assay [1] is T1, recombinant human Lp-PLA2 (Homo sapiens, UniProt Q13093).
T1 sequence (Q13093 22-441): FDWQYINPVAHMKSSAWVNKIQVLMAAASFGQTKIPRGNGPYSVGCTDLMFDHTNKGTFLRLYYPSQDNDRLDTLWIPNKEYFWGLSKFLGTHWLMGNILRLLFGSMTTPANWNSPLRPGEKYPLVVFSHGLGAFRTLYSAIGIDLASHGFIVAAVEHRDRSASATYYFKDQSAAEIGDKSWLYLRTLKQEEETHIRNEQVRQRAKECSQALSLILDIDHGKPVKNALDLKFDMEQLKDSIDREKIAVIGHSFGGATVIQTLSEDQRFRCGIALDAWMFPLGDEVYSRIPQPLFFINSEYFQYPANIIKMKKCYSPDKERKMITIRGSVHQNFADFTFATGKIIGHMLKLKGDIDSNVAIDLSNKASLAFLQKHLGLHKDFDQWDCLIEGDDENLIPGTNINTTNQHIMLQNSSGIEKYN
The experiment in a line: (1a) PED6 assay, recombinant human Lp-PLA2 (rhLp-PLA2). The conditions noted are these: Examples 1-167 and 413-430 were tested here, one experiment or average of multiple experiments, read-out: rhLp-PLA2 (pIC50) (converted). Format: biochemical. The essentials: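 PED6 (2 μM final after 1:1 addition of 4 μM stock) cleavage by rhLp-PLA2 (4 nM working solution) in 50 mM HEPES pH 7.4, 150 mM NaCl, 1 mM CHAPS; compounds preincubated with enzyme 30 minutes, reaction 20 min at room temperature. Fluorescence at ex 480/em 540; pIC50 from curve fit.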

For assay [2], the target named is T2, Lp-PLA2 in human plasma (Homo sapiens, UniProt Q13093).
T2 construct: from tissue; host or cells: pooled human plasma
T2 sequence (Q13093 22-441): T1 sequence (Q13093 22-441)
The experiment in a line: (3a) Lp-PLA2 human plasma Thio-PAF assay. The class given is biochemical. The following applies: (3a) Thio-PAF assay, pooled human plasma; Examples 1-265 and 413-430 were tested here; read-out: pIC50 in the Lp-PLA2 human plasma assay (converted). The procedure, abridged: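 Endogenous Lp-PLA2 activity in frozen pooled human plasma measured as thiol release from 2-thio-PAF, detected by CPM fluorescence (ex 380/em 485). Compound preincubation 30 min; 2-min reaction in HEPES pH 7.4 buffer with NEM, stopped with 5% TFA, read 40 min later at room temperature; values as pIC50.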

Structures can show the parent of a compound that is named as a salt.

Take `Cc1ncc(Oc2c(F)cc(COc3cc4n(c(=O)n3)C[C@@H]3COCN43)cc2F)cn1` [Example E159, (R)-6-((3,5-difluoro-4-((2-methylpyrimidin-5-yl)oxy)benzyl)oxy)-10,10a-dihydro-1H-oxazolo[3′,4′:3,4]imidazo[1,2-c]pyrimidin-8(3H)-one]: the IC50 in assay [1] is not above 0.1 µM; in assay [2], not above 10 µM.

With `N#Cc1cc(COc2cc3n(c(=O)n2)C[C@@H]2CCCN32)ccc1Oc1cc(F)cc(F)c1` [Example E88, (S)-2-(3,5-difluorophenoxy)-5-(((1-oxo-1,6,7,8,8a,9-hexahydropyrrolo[1′,2′:3,4]imidazo[1,2-c]pyrimidin-3-yl)oxy)methyl)benzonitrile], the IC50 in assay [1] was not above 0.001 µM; in assay [2], not above 10 µM.

Take `CN1c2cc(OCc3cc(F)c(F)cc3F)nc(=O)n2CC12CCCCC2` [Example 428, 1-methyl-7′-((2,4,5-trifluorobenzyl)oxy)-1′H-spiro[cyclohexane-1,2′-imidazo[1,2-c]pyrimidin]-5′(3′H)-one]: the IC50 in assay [1] is not above 0.1 µM; in assay [2], not above 10 µM.

As to `Cc1cc(Oc2c(F)cc(COc3cc4n(c(=O)n3)C[C@@H]3COCN43)cc2F)ccn1` [Example E155, (R)-6-((3,5-difluoro-4-((2-methylpyridin-4-yl)oxy)benzyl)oxy)-10,10a-dihydro-1H-oxazolo[3′,4′:3,4]imidazo[1,2-c]pyrimidin-8(3H)-one], the IC50 in assay [1] was not above 0.1 µM; in assay [2], not above 10 µM.

For `O=c1nc(OCc2cc(F)c(F)c(F)c2)cc2n1C[C@H]1CCCCN21` [Example E54, (R)-3-((3,4,5-Trifluorobenzyl)oxy)-6,7,8,9,9a,10-hexahydro-1H-pyrido[1′,2′:3,4]imidazo[1,2-c]pyrimidin-1-one], the IC50 in assay [1] and in assay [2] was not above 0.1 µM in each case.

For the compound `Cn1cc(Oc2ccc(COc3cc4n(c(=O)n3)C[C@@H]3CCCCN43)cc2F)cn1` [Example E51, (S)-3-((3-fluoro-4-((1-methyl-1H-pyrazol-4-yl)oxy)benzyl)oxy)-6,7,8,9,9a,10-hexahydro-1H-pyrido[1,2′:3,4]imidazo[1,2-c]pyrimidin-1-one], the IC50 was not above 0.1 µM in assay [1] and not above 10 µM in assay [2].

Regarding `N#Cc1cc(COc2cc3n(c(=O)n2)CC2CCCCN32)ccc1Oc1cccc(C(F)(F)F)c1` (stereo not drawn) [Example E12, 5-(((1-Oxo-6,7,8,9,9a,10-hexahydro-1H-pyrido[1′,2′:3,4]imidazo[1,2-c]pyrimidin-3-yl)oxy)methyl)-2-(3-(trifluoromethyl)phenoxy)benzonitrile], the IC50 was not above 0.001 µM in assay [1] and not above 0.1 µM in assay [2].

Consider `Cc1cc(Oc2c(F)cc(COc3cc4n(c(=O)n3)C[C@@H]3COCCN43)cc2F)ccn1` [Example E117, (R)-7-((3,5-difluoro-4-((2-methylpyridin-4-yl)oxy)benzyl)oxy)-3,4,11,11atetrahydropyrimido[6′,1′:2,3]imidazo[5,1-c][1,4]oxazin-9(1H)-one], for which the IC50 in assay [1] and in assay [2] was not above 0.1 µM each time.

As to `Cc1cc(COc2cc3n(c(=O)n2)CC2CCCCN32)cc(F)c1F` (stereo not drawn) [Example E14, 3-((3,4-Difluoro-5-methylbenzyl)oxy)-6,7,8,9,9a,10-hexahydro-1H pyrido[1′,2′:3,4]imidazo-[1,2-c]pyrimidin-1-one], the IC50 was not above 0.1 µM in assay [1] and not above 10 µM in assay [2].

As for `O=c1nc(OCc2cccc(F)c2F)cc2n1C[C@H]1CCCN21` [Example E101, (R)-3-((2,3-difluorobenzyl)oxy)-7,8,8a, 9-tetrahydropyrrolo[1′, 2′:3, 4]imidazo[1,2-c] pyrimidin-1(6H)-one], the IC50 in assay [1] is not above 0.1 µM; in assay [2], not above 10 µM.

Take `Cn1cc(Oc2ccc(COc3cc4n(c(=O)n3)C[C@H]3CCCN43)cc2F)cn1` [Example E68, (R)-3-((3-fluoro-4-((1-methyl-1H-pyrazol-4-yl)oxy)benzyl)oxy)-7,8,8a, 9-tetrahydro pyrrolo[1′,2′:3,4]imidazo[1,2-c]pyrimidin-1(6H)-one]: the values for the IC50 in assay [1] and in assay [2] were not above 0.1 µM and not above 10 µM, respectively.

Consider `N#Cc1cc(Oc2ccc(COc3cc4n(c(=O)n3)CC3CCCCN43)cc2F)cc(C(F)(F)F)c1` (stereo not drawn) [Example E28, 3-(2-Fluoro-4-(((1-oxo-6,7,8,9,9a,10-hexahydro-1H-pyrido[1′,2′:3,4]imidazo[1,2-c]pyrimidin-3-yl)oxy)methyl)phenoxy)-5-(trifluoromethyl)benzonitrile], for which the IC50 is not above 0.001 µM in assay [1] and not above 0.1 µM in assay [2].

In the case of `O=c1nc(OCc2cc(F)c(OC3CN(CCC(F)(F)F)C3)c(F)c2)cc2n1C[C@@H]1CCCN21` [Example E97, (S)-3-((3,5-difluoro-4-((1-(3,3,3-trifluoropropyl)azetidin-3-yl)oxy)benzyl)oxy)-7,8,8a,9-tetra hydropyrrolo[1′,2′:3,4]imidazo[1,2-c]pyrimidin-1(6H)-one], the figures for the IC50 in assay [1] and in assay [2] were not above 0.1 µM and not above 10 µM, respectively.

`CCn1cc(Oc2c(F)cc(COc3cc4n(c(=O)n3)C[C@H]3COCCN43)cc2F)cn1` [Example E115, (S)-7-((4-((1-ethyl-1H-pyrazol-4-yl)oxy)-3,5-difluorobenzyl)oxy)-3,4,11,11a-tetrahydropyrimido[6′,1′:2,3]imidazo[5,1-c][1,4]oxazin-9(1H)-one]: the IC50 in assay [1] is 0.001 µM; in assay [2], not above 0.1 µM.

In the case of `N#Cc1cc(Oc2ccc(COc3cc4n(c(=O)n3)CC3CCCCN43)cc2F)ccc1Cl` (stereo not drawn) [Example E11, 2-Chloro-5-(2-fluoro-4-(((1-oxo-6,7,8,9,9a,10-hexahydro-1H-pyrido[1′,2′:3,4]imidazo[1,2-c]pyrimidin-3-yl)oxy)methyl)phenoxy)benzonitrile], the IC50 in assay [1] is not above 0.001 µM; in assay [2], not above 0.1 µM.

For the compound `O=c1nc(OCc2ccc(F)c(F)c2)cc2n1C[C@H]1CCCCN21` [Example E30, (R)-3-((3,4-Difluorobenzyl)oxy)-6,7,8,9,9a,10-hexahydro-1H-pyrido[1′,2′:3,4]imidazo[1,2-c]pyrimidin-1-one], the IC50 in assay [1] and in assay [2] was not above 0.1 µM each time.

Take `CN1c2cc(OCc3cccc(F)c3)nc(=O)n2CC12CCCCC2` [Example 417]: the figures for the IC50 in assay [1] and in assay [2] were not above 0.1 µM and not above 10 µM, respectively.

With `CN1c2cc(OCc3cc(F)c(F)cc3F)nc(=O)n2CC12CCC2` [Example 429, 1-methyl-7′-((2,4,5-trifluorobenzyl)oxy)-1′H-spiro[cyclobutane-1,2′-imidazo[1,2-c]pyrimidin]-5′(3′H)-one], the IC50 in assay [1] was not above 0.1 µM; in assay [2], not above 10 µM.

`O=c1nc(OCc2cc(F)cc(F)c2)cc2n1C[C@H]1CCCN21` [Example E103, (R)-3-((3,5-difluorobenzyl)oxy)-7,8,8a,9-tetrahydropyrrolo[1,2′:3,4]imidazo[1,2-c] pyrimidin-1(6H)-one]: the results for the IC50 in assay [1] and in assay [2] were not above 0.1 µM and not above 10 µM, respectively.

On to `O=c1nc(OCc2cccc(F)c2F)cc2n1C[C@@H]1CCCCN21` [Example E58, (S)-3-((2,3-Difluorobenzyl)oxy)-6,7,8,9,9a,10-hexahydro-1H-pyrido[1′,2′:3,4]imidazo[1,2-c] pyrimidin-1-one], for which the IC50 in assay [1] is not above 0.1 µM; in assay [2] it was not above 10 µM.

Regarding `O=c1nc(OCc2cc(F)c(CCCF)c(F)c2)cc2n1CC1CCCN21` (stereo not drawn) [Example E99, 3-((3,5-Difluoro-4-(3-fluoropropyl)benzyl)oxy)-7,8,8a,9-tetrahydropyrrolo[1′,2′:3,4] imidazo[1,2-c]pyrimidin-1(6H)-one], the IC50 in assay [1] is not above 0.1 µM; in assay [2], not above 10 µM.

With `O=c1nc(OCc2ccc(F)cc2F)cc2n1C[C@H]1CCCN21` [Example E100, (R)-3-((2,4-difluorobenzyl)oxy)-7,8,8a,9-tetrahydropyrrolo[1,2′:3,4]imidazo[1,2-c] pyrimidin-1(6H)-one], the IC50 in assay [1] is not above 0.1 µM; in assay [2], not above 10 µM.

Take `O=c1nc(OCc2ccc(F)cc2)cc2n1CC1CCCCN21` (stereo not drawn) [Example E1, 3-((4-Fluorobenzyl)oxy)-6,7,8,9,9a,10-hexahydro-1H-pyrido[1,2′:3,4]imidazo[1,2-c] pyrimidin-1-one trifluoroacetate salt]: the IC50 in assay [1] is not above 0.1 µM; in assay [2] it was not above 10 µM.

On to `CCCCN1CC(Oc2c(F)cc(COc3cc4n(c(=O)n3)CC3CCCN43)cc2F)C1` (stereo not drawn) [Example E98, 3-((4-((1-Butylazetidin-3-yl)oxy)-3,5-difluorobenzyl)oxy)-7,8,8a,9-tetrahydropyrrolo[1′,2′:3,4]imidazo[1,2-c]pyrimidin-1(6H)-one], for which the figures for the IC50 in assay [1] and in assay [2] were not above 0.1 µM and not above 10 µM, respectively.
